Columns and labels:
[1] = test system: organotypic hippocampal slice cultures (CA1 or CA3 pyramidal cell layer); assay: Excitotoxic injury by glutamate receptor agonists, cell death by PI fluorescence; type: cell-based, Wistar rat; details: for protection: 300 μM
Experimental: Organotypic hippocampal slice cultures were prepared according to established methods (Pringle et al. (1997), Brain Res., 755, 36-46). In brief, Wistar rat pups (8-11 days old) were decapitated and the hippocampus rapidly dissected into ice-cold Gey's balanced salt solution (Gibco Life Technologies, Paisley, UK) supplemented with 4.5 mg ml^−1 glucose. Slices were separated and plated onto Millicell CM culture inserts (4 per well) and maintained at 37° C. and 5% CO2 for 14 days. Maintenance medium consisted of 25% heat-inactivated horse serum, 25% Hank's balanced salt solution (HBSS) and 50% minimum essential medium with added Earle's salts MM, ICN Biomedicals, Basingstoke, UK) supplemented with 1 mM glutamine and 4.5 mg ml^−1 glucose. Medium was changed every 3-4 days.
Excitotoxic injury was performed as previously described (Pringle et al. (1997), Brain Res., 755, 36-46) with L-Arg3,4 present pre-, during, and post-injury fin treated cultures. Cultures were transferred to SFM+PI with or without 300 μM L-Arg3,4 and allowed to equilibrate for 30 min prior to imaging. […] The medium was then exchanged for SFM+PI plus a glutamate receptor agonist (either 10 mM glutamate, 10 μM NMDA, 10 μM AMPA, or 10 μM kainate) for 3 h. After exposure, the media was again exchanged for SFM+PI containing 300 μM L-Arg3,4. Cultures were then returned to the incubator until they were assessed for cell death in the indicated region of the pyramidal cell layer 24 h post exposure.
Neuronal damage was assessed as described previously (Pringle et al. (1996), Stroke, 27, 2124-2130; Pringle et al. (1997), Brain Res., 755, 36-46). Light transmission images were captured prior to the induction of injury, and PI fluorescence images recorded at the end of the 24 h post-injury recovery period. All images were captured on an inverted Leica DM-IRBE epifluorescence microscope (Milton Keynes, UK) fitted with a 100 W Hg lamp and standard rhodamine optics (excitation 510-560 nm; dichroic mirror […]; emission>590 nm). Images were acquired with a 5×NA 0.12 lens and a cooled Hamamatsu digital camera and digitised at 12 bit resolution for analysis in OpenLab 2.1 (Improvision, Coventry, UK) running on a Macintosh G4/400. The area of the CA1 or CA3 cell layer was determined from the transmission image, and the area of PI fluorescence in that cell layers was measured using the density slice function within OpenLab. Neuronal damage was expressed as a percentage of the area in which PI fluorescence was detected above threshold within a cell layer divided by the total area of that cell layer. Protection was calculated as the difference between the damage for a given well and the average damage in untreated controls divided by the average damage in untreated controls. Groups were compared against corresponding control groups using the two tailed Student's t-test with significance indicated as * for P<0.05, and ** for P<0.01. Data is presented as mean±s.e.mean.

[2] = previous studies, WO99/31049; cited from earlier work
[3] = test system: organotypic hippocampal slice cultures (CA1 pyramidal cell layer); assay: Free-radical mediated injury (duroquinone), cell death by PI fluorescence; type: cell-based, Wistar rat; details: 100 μM duroquinone 3 h; 300 μM compound
Experimental: Organotypic hippocampal slice cultures were prepared according to established methods (Pringle et al. (1997), Brain Res., 755, 36-46). In brief, Wistar rat pups (8-11 days old) were decapitated and the hippocampus rapidly dissected into ice-cold Gey's balanced salt solution (Gibco Life Technologies, Paisley, UK) supplemented with 4.5 mg ml^−1 glucose. Slices were separated and plated onto Millicell CM culture inserts (4 per well) and maintained at 37° C. and 5% CO2 for 14 days. […]
Free-radical mediated injury was performed as described previously with L-Arg3,4 present pre-, during, and post-injury in treated cultures (Wilde et al. (1997, J. Neurochem., 69, 883-886). Briefly, cultures were transferred to SFM+PI with or without 300 μM L-Arg3,4 and allowed to equilibrate for 30 min prior to imaging. Any cultures in which PI fluorescence was detected at this stage were excluded from further study. Duroquinone (DQ) was dissolved in DMSO at a stock concentration of 100 mM which was then diluted 1:1000 in SFM for a final working concentration of 100 μM (final DMSO concentration of 0.1%). […]
Neuronal damage was assessed as described previously (Pringle et al. (1996), Stroke, 27, 2124-2130; Pringle et al. (1997), Brain Res., 755, 36-46). Light transmission images were captured prior to the induction of injury, and PI fluorescence images recorded at the end of the 24 h post-injury recovery period. […]

[4] = test system: superoxide production in organotypic slice cultures (CA1 pyramidal cell layer); assay: Superoxide production monitored fluorescently with hydroethidine (HEt); type: cell-based, Wistar rat
Experimental: Hydroethidine (HEt) has been utilised to fluorescently monitor the production of superoxide in primary neuronal cultures [Bindokas et al., (1996), Carriedo et al. (1998)]. A stock solution of HEt was made was made in N2 sparged DMSO (10 mg ml^−1) which was then aliquoted and stored at −80° C. aliquots were used only once before being discarded. Two separate experimental paradigms were employed to test the effect of L-Arg3,4 on superoxide production in response to either AMPA or NMDA stimulation.
For the AMA experiments, organotypic slice cultures were loaded with 1 μg ml^−1 HEt in HEPES buffered salt solution (HSS) (in mM): glucose 10, NaCl 144, KCl 5, HEPES 10, MgCl2 1, CaCl2 2, pH 7.4, for 30 minutes in the dark. All subsequent solutions contained HEt to prevent a decrease in signal due to reporter depletion. Images were acquired once per minute for the duration of the experiment on the same system as described above for assessment of cell death. A 10 minute record of baseline superoxide production was produced before the bathing solution was exchanged for HBSS+BEt containing 10 μM AMPA, again for 10 minutes. As shown previously, stimulation of glutamate receptors with AMPA lead to an increase in superoxide production [Bindokas et al., (1996), Carriedo et al. (1998)]. The bathing solution was then exchanged for HBSS+HEt containing both 10 μM AMPA and 300 μM L-Arg3,4 for 10 minutes to test the effect of L-Arg3,4 on superoxide production. In separate control experiments, 300 μM L-Arg3,4 in HSS was incubated with slices to determine if it affected baseline superoxide production on its own.
Acquired images from the AMPA experiments were then analysed with the OpenLab image analysis package. A region of interest was drawn around the CA1 pyramidal cell layer because this was the cell layer that produced the largest increase in fluorescence in response to AMPA activation. In each image, within the region of interest, the average pixel value was calculated in arbitrary units (AU) to produce a record of fluorescence intensity values over time. A linear regression was then performed on the data to calculate the rate of superoxide production as change in intensity over time (arbitrary units per minute, AU min^−1) for each of the treatments. Data is presented as mean±s.d. Rates of superoxide production were then compared by ANOVA followed by post-hoc comparisons with Bonferroni corrections with significance indicated as * for P<0.05 and ** for P<0.01.

In the case of `N=C(N)NCCCC(N)C(=O)NCCCNCCCCN` [L-Arg3,4, L-arginyl-3,4-spermidine], the “cell death (damage) in CA1” value ([1]; 10 μM AMPA 3 h, 300 μM compound) is reported as 19±4%, the protection ([1]; 10 μM AMPA, CA1) is reported as 53% and the “cell death (damage) in CA1” value ([1]; 10 μM NMDA 3 h, 300 μM compound) is reported as 16±2%. For the same compound, the protection ([1]; 10 μM NMDA, CA1) was 38%, the “cell death (damage) in CA3” value ([1]; 10 μM kainate 3 h, 300 μM compound) was 11±4% and the protection ([1]; 10 μM kainate, CA3) was 61%. For the same compound, the “cell death (damage) in CA1” value ([1]; 10 mM Glut 3 h, 300 μM compound pre-, during, post-injury) was 13±3%, the protection ([1]; 10 mM Glut, CA1) was 41% and the “effect on blood pressure, heart rate, respiration, motor function” value [2] was “did not affect blood pressure, heart rate or respiration, or result in adverse motor function”. For the same compound, the “injury (cell death in CA1)” value [3] was 21±5%, the protection [3] was 46% and the “rate of baseline superoxide production” value ([4]; 300 μM compound alone, no AMPA) was 2.55±2.02 AU min^−1. For the same compound, the “rate of superoxide production” value ([4]; 300 μM compound in continued presence of 10 μM AMPA) was 5.07±1.94 AU min-d.
